One block for each molecule: values may come before it.
Key:
Settings in all cases: binder
ACVR2A = ACVR2A (Homo sapiens, UniProt P27037)
ACVRL1 = ACVRL1 (Homo sapiens, UniProt P37023)
BMP2K = BMP2K (Homo sapiens, UniProt Q9NSY1)
BMPR1B = BMPR1B (Homo sapiens, UniProt O00238)
CAMK2B = CAMK2B (Homo sapiens, UniProt Q13554)
DAPK3 = DAPK3 (Homo sapiens, UniProt O43293)
DCLK1 = DCLK1 (Homo sapiens, UniProt O15075)
GRK1 = GRK1 (Homo sapiens, UniProt Q15835)
GSK3B = GSK3B (Homo sapiens, UniProt P49841)
JAK1 = JAK1 (Homo sapiens, UniProt P23458)
MAP2K6 = MAP2K6 (Homo sapiens, UniProt P52564)
MAP3K5 = MAP3K5 (Homo sapiens, UniProt Q99683)
MAPK3 = MAPK3 (Homo sapiens, UniProt P27361)
PKN2 = PKN2 (Homo sapiens, UniProt Q16513)
PRKAA2 = PRKAA2 (Homo sapiens, UniProt P54646)
Sequence of PRKAA2 (P54646 whole entry): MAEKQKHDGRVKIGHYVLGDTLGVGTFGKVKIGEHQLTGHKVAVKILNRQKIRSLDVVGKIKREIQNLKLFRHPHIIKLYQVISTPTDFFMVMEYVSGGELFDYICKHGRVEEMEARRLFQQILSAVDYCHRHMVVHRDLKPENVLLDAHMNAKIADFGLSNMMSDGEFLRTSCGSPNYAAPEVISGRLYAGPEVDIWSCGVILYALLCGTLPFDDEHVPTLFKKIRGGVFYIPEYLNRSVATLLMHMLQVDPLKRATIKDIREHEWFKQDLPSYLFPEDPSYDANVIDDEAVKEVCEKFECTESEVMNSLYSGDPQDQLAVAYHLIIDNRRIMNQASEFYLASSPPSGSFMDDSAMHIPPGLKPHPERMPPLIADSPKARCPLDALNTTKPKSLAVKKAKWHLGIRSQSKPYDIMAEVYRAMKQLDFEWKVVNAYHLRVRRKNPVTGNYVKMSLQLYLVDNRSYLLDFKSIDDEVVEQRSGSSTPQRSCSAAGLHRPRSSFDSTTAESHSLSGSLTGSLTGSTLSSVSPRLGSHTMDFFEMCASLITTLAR

RIOK2 = RIOK2 (Homo sapiens, UniProt Q9BVS4)
STK25 = STK25 (Homo sapiens, UniProt O00506)
STK4 = STK4 (Homo sapiens, UniProt Q13043)
TGFBR1 = TGFBR1 (Homo sapiens, UniProt P36897)
CDC42BPA = CDC42BPA (Homo sapiens, UniProt Q5VT25)
Sequence of CDC42BPA (Q5VT25 whole entry): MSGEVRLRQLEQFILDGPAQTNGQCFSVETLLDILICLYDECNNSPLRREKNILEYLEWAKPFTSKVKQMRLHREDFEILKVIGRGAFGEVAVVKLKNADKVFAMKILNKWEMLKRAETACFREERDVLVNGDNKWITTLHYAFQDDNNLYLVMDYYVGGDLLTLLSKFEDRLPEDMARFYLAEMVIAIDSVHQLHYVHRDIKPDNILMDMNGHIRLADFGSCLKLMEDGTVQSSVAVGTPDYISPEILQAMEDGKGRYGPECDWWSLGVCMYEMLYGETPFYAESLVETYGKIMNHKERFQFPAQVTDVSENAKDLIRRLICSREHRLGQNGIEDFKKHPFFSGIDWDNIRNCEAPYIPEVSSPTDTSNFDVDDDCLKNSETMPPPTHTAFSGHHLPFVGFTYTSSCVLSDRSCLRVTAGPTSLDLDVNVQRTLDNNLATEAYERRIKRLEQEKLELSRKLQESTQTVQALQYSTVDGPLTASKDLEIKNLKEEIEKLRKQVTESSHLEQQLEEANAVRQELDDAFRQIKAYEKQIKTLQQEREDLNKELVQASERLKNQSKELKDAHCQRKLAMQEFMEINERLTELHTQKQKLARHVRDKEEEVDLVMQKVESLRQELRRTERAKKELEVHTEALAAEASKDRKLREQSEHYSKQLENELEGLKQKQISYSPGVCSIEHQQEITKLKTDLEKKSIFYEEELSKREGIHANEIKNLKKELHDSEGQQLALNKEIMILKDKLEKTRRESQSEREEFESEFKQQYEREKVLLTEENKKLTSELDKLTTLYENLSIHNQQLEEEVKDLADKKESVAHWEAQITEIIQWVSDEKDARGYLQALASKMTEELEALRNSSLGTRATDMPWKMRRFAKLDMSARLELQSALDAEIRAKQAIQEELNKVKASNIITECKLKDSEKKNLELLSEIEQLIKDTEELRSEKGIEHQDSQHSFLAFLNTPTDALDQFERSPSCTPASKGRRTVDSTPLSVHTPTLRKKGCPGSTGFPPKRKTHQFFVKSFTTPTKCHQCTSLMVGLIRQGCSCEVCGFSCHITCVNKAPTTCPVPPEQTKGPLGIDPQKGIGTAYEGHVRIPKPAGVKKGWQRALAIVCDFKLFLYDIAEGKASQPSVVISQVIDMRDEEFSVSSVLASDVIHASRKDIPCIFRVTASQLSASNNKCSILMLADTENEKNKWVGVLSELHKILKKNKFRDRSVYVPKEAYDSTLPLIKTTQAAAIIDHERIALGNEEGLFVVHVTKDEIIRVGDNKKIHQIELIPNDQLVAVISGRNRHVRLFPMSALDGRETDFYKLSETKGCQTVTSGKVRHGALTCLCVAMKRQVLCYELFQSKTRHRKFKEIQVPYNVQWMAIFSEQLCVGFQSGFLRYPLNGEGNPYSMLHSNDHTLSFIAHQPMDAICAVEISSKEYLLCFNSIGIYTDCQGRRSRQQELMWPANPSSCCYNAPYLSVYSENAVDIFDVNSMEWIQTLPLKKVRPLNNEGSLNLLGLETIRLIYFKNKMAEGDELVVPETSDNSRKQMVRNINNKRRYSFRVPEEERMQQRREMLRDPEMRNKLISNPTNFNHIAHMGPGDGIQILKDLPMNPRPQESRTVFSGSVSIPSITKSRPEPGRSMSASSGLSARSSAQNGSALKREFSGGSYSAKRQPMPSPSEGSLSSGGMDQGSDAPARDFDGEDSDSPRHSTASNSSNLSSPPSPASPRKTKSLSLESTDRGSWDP

CDC42BPB = CDC42BPB (Homo sapiens, UniProt Q9Y5S2)
Sequence of CDC42BPB (Q9Y5S2 whole entry): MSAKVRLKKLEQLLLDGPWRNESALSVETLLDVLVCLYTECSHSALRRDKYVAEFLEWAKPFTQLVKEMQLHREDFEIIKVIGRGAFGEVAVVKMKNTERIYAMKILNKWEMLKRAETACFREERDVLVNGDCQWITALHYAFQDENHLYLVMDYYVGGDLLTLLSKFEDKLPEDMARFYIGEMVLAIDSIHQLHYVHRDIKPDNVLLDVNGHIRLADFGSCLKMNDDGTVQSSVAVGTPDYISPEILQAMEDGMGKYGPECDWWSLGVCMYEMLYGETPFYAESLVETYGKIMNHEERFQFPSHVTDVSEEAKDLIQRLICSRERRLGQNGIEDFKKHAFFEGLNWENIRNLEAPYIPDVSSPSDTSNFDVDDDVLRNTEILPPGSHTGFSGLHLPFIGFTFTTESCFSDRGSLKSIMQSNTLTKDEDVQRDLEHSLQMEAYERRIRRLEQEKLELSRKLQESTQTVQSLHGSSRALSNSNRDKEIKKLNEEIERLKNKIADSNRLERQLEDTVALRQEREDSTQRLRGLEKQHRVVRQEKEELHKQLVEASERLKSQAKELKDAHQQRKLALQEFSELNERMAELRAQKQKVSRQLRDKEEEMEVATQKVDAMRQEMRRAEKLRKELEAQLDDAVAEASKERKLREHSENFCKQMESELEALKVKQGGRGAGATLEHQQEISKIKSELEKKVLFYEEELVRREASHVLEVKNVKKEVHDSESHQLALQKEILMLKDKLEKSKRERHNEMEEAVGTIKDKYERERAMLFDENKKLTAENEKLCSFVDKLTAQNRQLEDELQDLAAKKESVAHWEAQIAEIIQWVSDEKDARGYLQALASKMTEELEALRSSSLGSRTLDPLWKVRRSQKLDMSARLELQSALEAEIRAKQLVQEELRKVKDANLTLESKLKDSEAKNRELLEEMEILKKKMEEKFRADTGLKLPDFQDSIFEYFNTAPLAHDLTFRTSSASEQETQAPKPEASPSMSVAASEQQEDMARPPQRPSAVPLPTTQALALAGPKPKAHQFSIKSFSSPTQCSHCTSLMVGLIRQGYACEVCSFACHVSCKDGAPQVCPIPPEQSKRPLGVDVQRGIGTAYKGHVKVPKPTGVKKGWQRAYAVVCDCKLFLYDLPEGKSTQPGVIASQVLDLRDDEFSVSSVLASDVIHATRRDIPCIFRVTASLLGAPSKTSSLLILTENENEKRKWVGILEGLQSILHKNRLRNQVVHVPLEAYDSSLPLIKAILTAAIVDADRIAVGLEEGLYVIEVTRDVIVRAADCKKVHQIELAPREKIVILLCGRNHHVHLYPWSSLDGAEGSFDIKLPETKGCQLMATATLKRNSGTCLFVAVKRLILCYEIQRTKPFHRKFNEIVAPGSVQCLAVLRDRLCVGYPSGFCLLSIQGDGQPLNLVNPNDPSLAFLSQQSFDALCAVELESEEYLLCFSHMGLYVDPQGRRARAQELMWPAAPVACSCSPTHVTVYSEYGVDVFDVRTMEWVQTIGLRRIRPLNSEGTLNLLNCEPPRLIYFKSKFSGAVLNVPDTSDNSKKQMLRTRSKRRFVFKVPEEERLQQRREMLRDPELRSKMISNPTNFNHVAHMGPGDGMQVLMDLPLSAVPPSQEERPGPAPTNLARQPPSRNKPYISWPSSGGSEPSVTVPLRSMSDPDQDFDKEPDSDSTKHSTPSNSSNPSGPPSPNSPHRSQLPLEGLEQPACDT

CDK4 = CDK4 (Homo sapiens, UniProt P11802)
CDKL5 = CDKL5 (Homo sapiens, UniProt O76039)
MAP2K1 = MAP2K1 (Homo sapiens, UniProt Q02750)
MAPK13 = MAPK13 (Homo sapiens, UniProt O15264)
Sequence of MAPK13 (O15264 whole entry): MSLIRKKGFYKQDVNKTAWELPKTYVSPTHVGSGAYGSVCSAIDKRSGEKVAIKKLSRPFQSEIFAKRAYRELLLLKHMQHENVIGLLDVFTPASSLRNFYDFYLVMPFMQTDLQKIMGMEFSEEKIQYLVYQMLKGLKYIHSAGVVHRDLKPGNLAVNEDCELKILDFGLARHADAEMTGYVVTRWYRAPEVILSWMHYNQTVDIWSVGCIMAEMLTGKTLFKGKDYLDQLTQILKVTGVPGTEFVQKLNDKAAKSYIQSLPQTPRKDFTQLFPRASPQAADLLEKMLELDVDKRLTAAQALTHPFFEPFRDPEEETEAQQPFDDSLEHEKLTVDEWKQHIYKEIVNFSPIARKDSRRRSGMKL

MAPK8 = MAPK8 (Homo sapiens, UniProt P45983)
NEK1 = NEK1 (Homo sapiens, UniProt Q96PY6)
NEK2 = NEK2 (Homo sapiens, UniProt P51955)
SIK2 = SIK2 (Homo sapiens, UniProt Q9H0K1)
SRPK2 = SRPK2 (Homo sapiens, UniProt P78362)
STK24 = STK24 (Homo sapiens, UniProt Q9Y6E0)

Sequence of GRK1 (Q15835 whole entry): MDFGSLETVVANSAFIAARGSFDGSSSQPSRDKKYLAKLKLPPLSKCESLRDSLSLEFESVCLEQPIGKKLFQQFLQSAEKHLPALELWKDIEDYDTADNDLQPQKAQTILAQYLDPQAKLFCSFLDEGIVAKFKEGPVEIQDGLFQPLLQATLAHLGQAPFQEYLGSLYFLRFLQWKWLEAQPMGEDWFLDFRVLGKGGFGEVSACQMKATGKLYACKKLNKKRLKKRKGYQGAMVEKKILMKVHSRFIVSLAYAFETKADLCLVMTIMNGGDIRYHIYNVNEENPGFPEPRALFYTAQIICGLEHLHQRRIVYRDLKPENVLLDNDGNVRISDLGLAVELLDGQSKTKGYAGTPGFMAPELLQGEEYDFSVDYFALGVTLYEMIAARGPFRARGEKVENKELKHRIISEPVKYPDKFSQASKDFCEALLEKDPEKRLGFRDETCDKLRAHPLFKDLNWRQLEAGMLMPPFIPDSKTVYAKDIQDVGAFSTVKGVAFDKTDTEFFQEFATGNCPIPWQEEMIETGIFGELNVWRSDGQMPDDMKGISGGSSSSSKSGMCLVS

- ΔTm inhibitor 1 (ACVR2A): 4.0 °C
- ΔTm inhibitor 1 (ACVRL1): 11.1 °C
- ΔTm inhibitor 1 (BMP2K): 10.7 °C
- ΔTm inhibitor 1 (BMPR1B): 11.5 °C
- ΔTm inhibitor 1 (CAMK2B): 0.2 °C
- ΔTm inhibitor 1 (DAPK3): 2.8 °C
- ΔTm inhibitor 1 (DCLK1): 0.6 °C
- ΔTm inhibitor 1 (GRK1): 1.1 °C
- ΔTm inhibitor 1 (GSK3B): 4.1 °C
- ΔTm inhibitor 1 (JAK1): 6.4 °C
- ΔTm inhibitor 1 (MAP2K6): 1.1 °C
- ΔTm inhibitor 1 (MAP3K5): 2.2 °C
- ΔTm inhibitor 1 (MAPK3): 0.5 °C
- ΔTm inhibitor 1 (PKN2): 3.7 °C
- ΔTm inhibitor 1 (PRKAA2): 1.1 °C
- ΔTm inhibitor 1 (RIOK2): 0.3 °C
- ΔTm inhibitor 1 (STK25): 0.5 °C
- ΔTm inhibitor 1 (STK4): 2.6 °C
- ΔTm inhibitor 1 (TGFBR1): 9.5 °C
Compound: CC(=O)c1cccc(-c2cnc3ccc(NCC4CC4)nn23)c1 [compound 1, K00135]

- ΔTm inhibitor 2 (BMP2K): 0.2 °C
- ΔTm inhibitor 2 (CAMK2B): 0.3 °C
- ΔTm inhibitor 2 (CDC42BPA): -0.4 °C
- ΔTm inhibitor 2 (CDC42BPB): 0.3 °C
- ΔTm inhibitor 2 (CDK4): -0.6 °C
- ΔTm inhibitor 2 (CDKL5): 1.1 °C
- ΔTm inhibitor 2 (DAPK3): 0.9 °C
- ΔTm inhibitor 2 (DCLK1): -0.4 °C
- ΔTm inhibitor 2 (GRK1): 0.4 °C
- ΔTm inhibitor 2 (GSK3B): 1.4 °C
- ΔTm inhibitor 2 (JAK1): 0.1 °C
- ΔTm inhibitor 2 (MAP2K1): -0.1 °C
- ΔTm inhibitor 2 (MAP2K6): 0.0 °C
- ΔTm inhibitor 2 (MAP3K5): 0.4 °C
- ΔTm inhibitor 2 (MAPK13): 0.4 °C
- ΔTm inhibitor 2 (MAPK3): -0.1 °C
- ΔTm inhibitor 2 (MAPK8): 0.7 °C
- ΔTm inhibitor 2 (NEK1): -0.3 °C
- ΔTm inhibitor 2 (NEK2): 0.8 °C
- ΔTm inhibitor 2 (PKN2): -0.5 °C
- ΔTm inhibitor 2 (PRKAA2): -0.1 °C
- ΔTm inhibitor 2 (RIOK2): -0.2 °C
- ΔTm inhibitor 2 (SIK2): -0.2 °C
- ΔTm inhibitor 2 (SRPK2): -0.2 °C
- ΔTm inhibitor 2 (STK24): -0.2 °C
- ΔTm inhibitor 2 (STK25): 0.7 °C
- ΔTm inhibitor 2 (STK4): 0.7 °C
Compound: CCN1/C(=C/C(C)=O)Sc2ccc(OC)cc21 [compound 2, TG003]

- ΔTm inhibitor 4 (ACVR2A): 0.3 °C
- ΔTm inhibitor 4 (ACVRL1): 1.2 °C
- ΔTm inhibitor 4 (BMPR1B): 0.2 °C
- ΔTm inhibitor 4 (CDC42BPA): 0.6 °C
- ΔTm inhibitor 4 (CDC42BPB): 0.2 °C
- ΔTm inhibitor 4 (CDK4): 1.5 °C
- ΔTm inhibitor 4 (CDKL5): 0.3 °C
- ΔTm inhibitor 4 (MAP2K1): 0.2 °C
- ΔTm inhibitor 4 (MAPK13): 0.5 °C
- ΔTm inhibitor 4 (MAPK8): 1.0 °C
- ΔTm inhibitor 4 (NEK1): 0.6 °C
- ΔTm inhibitor 4 (NEK2): 0.1 °C
- ΔTm inhibitor 4 (SIK2): 0.4 °C
- ΔTm inhibitor 4 (SRPK2): 0.4 °C
- ΔTm inhibitor 4 (STK24): 0.8 °C
- ΔTm inhibitor 4 (TGFBR1): 0.9 °C
Compound: Nc1nccc(-c2ccc3noc(-c4ccc(Cl)cc4)c3c2)n1 [compound 4, K00972]
